{"source": "patent US6399380B1", "about": "“Native-state histoculturing skin extracellular support” (Anti-Cancer, Inc., priority 1991, dated 2002)", "key": {"histocultured mouse skin": {"system": "histocultured mouse skin", "method": "Samples of skin having an external surface area of about 10 mm^2 and a thickness of about one to two mm were excised from an athymic nude mouse and placed on a GELFOAM™ matrix immersed in Eagle's MEM containing about 0.2 mg/ml of gentamycin and about 10% (v/v) fetal bovine serum. Prior to use the matrix was soaked in the medium for four hours at 37° C. to equilibrate the matrix in the medium.\nThe skin samples were maintained on the matrix in the medium at a temperature of about 37° C. in a gassed incubator under a mixture of 95% air and 5% CO2. Viability was assessed as the uptakes of an indicator specific for viable cells (BCECF-AM) and an indicator specific for dead cells (propidium iodide, PI), or as the uptake of [^3H]-thymidine.\nThe fluorescent dye indicators BCECF-AM and PI (Molecular Probes, Eugene, Oreg.) were added directly to the medium at a final concentration of 5 micromolar. Incorporation of the dyes was microscopically evaluated about 30 min following addition of the dyes to the medium by optical scanning using an MRC-600 Confocal Imaging System (Bio-Rad, Richmond, Calif.) mounted on a Nikon Epithet equipped with a 10× Plane objective. Samples were observed using an optical section of about 4 microns.\nSkin samples from athymic nude mice were cultured according to the method of Example 1. Viability was assessed before and after the addition of putative toxins using BCECF-AM and [^3H]-thymidine as indicators specific for viable cells and PI as an indicator specific for dead cells. The uptake of these indicators was determined according to the methods of Example 1.\nAn initial assessment of viability was made 2 days after initiation of the skin culture using BCECF-AM and PI. Immediately following this initial assessment, various concentrations of the toxins ethanol, doxorubicin or sodium hypochlorite were contacted with the skin samples. The final concentrations of the toxins varied from about 0.5% to about 70% (v/v) for ethanol, from about 29 to about 725 mgs/ml for doxorubicin and from about 0.6% to about 60.0% (v/v) for sodium hypochlorite.\nThe skin samples were contacted with ethanol, doxorubicin and sodium hypochlorite for about 5 min., for about 24 hours and for about 2 hours respectively. Following these contact times, the toxin-containing medium was replaced with fresh, non-toxin-containing medium and the skin samples reassessed for viability using BCECF-AM and PI Viability was assessed in the same region of the skin sample before and after contact with the toxin.\nIn this study, toxicity was expressed as a percent of killed cells. The fraction of killed cells (PI-positive cells) with respect to total cells (PI-positive (red) plus BCECF-AM-positive (green) cells) in treated cultures is measured with confocal fluorescence scanning microscopy and is compared to untreated controls to determine cytotoxicity. The percent of killed cells is expressed as the number of red cells after treatment minus the number of red cells before treatment, divided by the total number of cells (green cells after treatment plus red cells after treatment).\nThe effects of doxorubicin and sodium hypochlorite on skin toxicity were determined in an identical manner to that described above for ethanol."}, "[1]": {"system": "dermal, epidermal and follicle cells of histocultured mouse skin", "assay": "Skin toxicity assay: [3H]-thymidine uptake (percent cell proliferation), autoradiography", "assay_type": "cell-based", "conditions": "FIG. 6", "experimental": "[^3H]-Thymidine was added directly to the medium at a final concentration of 4 μCI/ml. Skin samples were maintained in the thymidine-containing medium for 3 days. After the 3 days, the skin cultures were washed with phosphate-buffered saline, pH 7.0, placed in histology capsules and fixed in 10% (v/v) formalin. The fixed skin cultures were then dehydrated, embedded in paraffin, sectioned and placed on slides by standard methods well known to those of skill in the histology art. The slides were deparaffinized, coated with Kodak NTB-2 emulsion, exposed for 5 days and developed. […]\nIn addition, skin samples contacted with doxorubicin were assessed for viability using the uptake of [^3H]-thymidine measured after 24 hr of toxin contact.\nIn this study, toxicity was expressed as percent cell proliferation. Percent cell proliferation was calculated as the ratio of, (1) percentage of cells labeled with [^3H]-thymidine to total cells in doxorubicin treated samples compared to (2) the percentage of [^3H]-thymidine labeled cells to total cells in control, untreated skin samples."}, "dorsal skin of mice": {"system": "dorsal skin of mice", "conditions": "mouse, in vivo", "method": "The in vivo assessment of toxicity was determined using a standard skin irritation test as set forth below.\nSmall pieces of gauze paper (about 1.5 cm^2 size), which have been soaked in different concentrations of sodium hypochlorite, were tightly put on 3 different sites on the dorsal surface of the mice. Skin sites were scored on a 1 to 4 scale for […] and edema ½ hour and 1 hour after removal of the sodium hypochlorite. The primary irritation index (PII) for each concentration of sodium hypochlorite was derived from the following formula: […]"}}, "data": [{"compound": "COc1cccc2c1C(=O)c1c(O)c3c(c(O)c1C2=O)C[C@@](O)(C(=O)CO)C[C@@H]3O[C@H]1C[C@H](N)[C@H](O)[C@H](C)O1", "note": "[doxorubicin]", "values": [{"measurement": "toxicity (percent of killed cells) as a function of concentration", "setting": "histocultured mouse skin; doxorubicin about 29 to about 725 mgs/ml, 24 hours, FIG. 5", "value": "relatively proportional to the concentration of doxorubicin"}, {"measurement": "percent cell proliferation ([3H]-thymidine labeled cells relative to control)", "setting": "[1]; 24 hour exposure to doxorubicin", "value": "dose-dependent decrease in cell proliferation"}, {"measurement": "cell type in which toxicity was most pronounced", "setting": "[1]; 24 hour exposure, dermal, epidermal and follicle cells compared", "value": "most pronounced in hair follicle cells"}]}, {"compound": "CCO", "note": "[ethanol]", "values": [{"measurement": "viability of skin sample after vs before treatment (live/dead staining)", "setting": "histocultured mouse skin; 0.5% (v/v) or 5.0% ethanol, about 5 min, skin histocultured 2 days, FIG. 3", "value": "a large number of cells died"}, {"measurement": "relative toxicity (loss in viability)", "setting": "histocultured mouse skin; 5.0% vs 0.5% ethanol, about 5 min, FIG. 3", "value": "more toxic (a greater loss in viability) than was 0.5% ethanol"}, {"measurement": "loss of viability", "setting": "histocultured mouse skin; 30%, 50% and 70% ethanol, data not shown", "value": "increasing losses of viability above the extent of losses observed using 5% ethanol"}, {"measurement": "percent of killed cells (toxicity) as a function of concentration", "setting": "histocultured mouse skin; ethanol about 0.5% to about 70% (v/v), 5 minutes, skin histocultured two days, FIG. 4", "value": "increases as the concentration of ethanol increases"}]}, {"compound": "OCl", "note": "[sodium hypochlorite]", "values": [{"measurement": "threshold of toxicity (percent of killed cells)", "setting": "histocultured mouse skin; athymic nude, mouse", "value": "about 0.6%"}, {"measurement": "threshold of toxicity (primary irritation index)", "setting": "dorsal skin of mice", "value": "about 0.6%"}]}]}
